Test results reported in PubChem BioAssay AID1919014 (Molecular Pharmacology Branch, DTP, NCI, 2023).
Where “and” joins values, the source holds several entries; their conditions need not be identical. Equal values may be shown once.

System: NCI-H1341 complex spheroids, percent test/control
Experiment: Anticancer human tumor NCI-H1341 cell line growth inhibition [AhR];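 note: spheroids exposed to agents for seven days before readout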
Details: for viability, T/C: stronger effect = lower value; for IC50: curve of compound
Description: Multicellular complex tumor spheroid response to aryl hydrocarbon receptor antagonists in combination with a variety of drugs and investigational agents in selected tumor cell lines
The current study was undertaken to assess response to aryl hydrocarbon receptor antagonists in combination with standard-of-care drugs and investigational agents in solid tumor complex spheroid models. Complex spheroids include a stromal component modeled by human endothelial cells (HUVEC) and fibroblasts modeled by human mesenchymal stem cells (MSCs). The concentration ranges selected for each drug and investigational agent were based upon clinically achievable concentrations if the clinical Cmax of the agent was known.
Compounds. The drugs and investigational agents: BAY 2416964 (NSC825713), GNF351 (NSC835774), CH-223191 (NSC835775), CPI-455 (NSC825282), aza-TdCyd (NSC777586), decitabine (NSC127716), belinostat (NSC758774), entinostat (NSC756642), pevonedistat (NSC761192), tazemetostat (NSC777109), talazoparib (NSC765396), olaparib (NSC753686), selinexor (NSC780203), nedisertib (M3814, NSC802822), bortezomib (NSC756655), venetoclax (NSC766270), doxorubicin (NSC123127), elimusertib (BAY189344, NSC800525), ceralasertib (AZD6738, NSC777638), TAK-243 (NSC785004), alisertib (NSC759677), etoposide (NSC141540), topotecan (NSC609699), eribulin (NSC707389), gemcitabine (NSC613327), carboplatin (NSC241240), cisplatin (NSC119875), and SN-38 (NSC673596) were obtained from the National Cancer Institute (NCI) Developmental Therapeutics Program Chemical Repository (32). The FDA-approved anticancer drug set is available from the Developmental Therapeutics Program at https://dtp.cancer.gov/organization/dscb/obtaining/available plates.htm. […] The stock solutions were prepared in dimethyl sulfoxide (DMSO, Sigma-Aldrich, St. Louis, MO, cat. D2650), except for the platinum compounds which were prepared in saline (Quality Biological, Gaithersburg, MD, cat. 114-055-101), at 800-fold the tested concentration and stored at -70 degrees C prior to their use. All drugs and investigational agents were tested over a range starting from a high concentration at or near the clinical Cmax and decreasing in half-log increments. If the clinical Cmax for an agent had not been determined, the highest concentration tested was 10 microM (Table 1).
Cell Culture. All cells were maintained in an incubator at 37 degrees C and 5% CO2 with 95% humidity. The PDC lines were cultured according to standard operating procedures established by the NCI PDMR (https://pdmr.cancer.gov). Briefly, all PDCs were thawed and cultured in Matrigel-coated flasks prepared with a working solution of 1X Ham's F-12 nutrient mix, without supplementation (Invitrogen, Waltham, MA, cat. 11765054), 100 U/mL penicillin-streptomycin (Invitrogen, cat. 15140122), and 2.5% Matrigel (Corning Inc., Corning, NY, cat. 354248) for the first three passages. All PDCs were cultured in complete DMEM/F-12 media containing advanced DMEM/F-12 (Invitrogen, cat. 12634028), 4.9% defined fetal bovine serum, heat inactivated (HyClone Laboratories Inc., Logan, UT, cat. SH30070.03HI), 389 ng/mL hydrocortisone (Sigma-Aldrich, cat. H4001), 9.7 ng/mL human EGF recombinant protein (Invitrogen, cat. PHG0313), 23.4 microg/mL adenine (Sigma-Aldrich, cat. A2786), 97.3 U/mL penicillin-streptomycin (Invitrogen, cat. 15140122), 1.9 mM L-glutamine (Invitrogen, cat. 25030081), and 9.7 microM Y-27632 dihydrochloride (Tocris Bioscience, Bristol, United Kingdom, cat. 1254). The PDCs were cultured in complete DMEM/F12 media without 10 microM Y-27632 dihydrochloride for at least two passages prior to the screen. The established cell lines NCI-H1341 and […] were cultured in DMEM/F-12, HEPES (Invitrogen, cat. 11330032), 5% defined fetal bovine serum (HyClone Laboratories Inc., cat. SH30070.03), ITS premix universal culture supplement [insulin (5 microg/mL), transferrin (5 microg/mL), and selenious acid (5 ng/mL)] […]

SMILES | viability, T/C (compound 0.0316 µM) | viability, T/C (compound 0.1 µM) | viability, T/C (compound 0.316 µM) | viability, T/C (compound 1 µM) | viability, T/C (compound 3.16 µM) | viability, T/C (compound 10 µM) | IC50 | also measured
COc1ccc([C@@H](O)c2cc(-c3ncnc4cc(N5CCOCC5)ccc34)c(F)cc2Cl)nn1 | 97.1% and 88.2% and 96% | 96.2% and 93.7% and 96.8% | 91.2% and 79.9% and 87.8% | 63.1% and 57% and 71.2% | 31.1% and 22.9% and 32.9% | 4.6% and 6.65% and 8.33% | 1650 nM and 1260 nM and 1880 nM | 
COc1cccc2c1C(=O)c1c(O)c3c(c(O)c1C2=O)CC(O)(C(=O)CO)CC3OC1CC(N)C(O)C(C)O1 (stereo not drawn) | 49.4% and 58.5% and 51.1% | 48.7% and 55.5% and 55.7% | 35.4% and 44.5% and 30.1% | 13.8% and 18.2% and 6.98% | 0.92% and 1.68% and 0.74% | 4.71% and 5.46% and 2.82% | < 31.6 nM and 186 nM and 114 nM | 
Cc1ccccc1N=Nc1ccc(NC(=O)c2ccnn2C)c(C)c1 |  |  |  |  |  | 56.2% [middle of 20 runs] |  | 
Cn1ncnc1C1c2n[nH]c(=O)c3cc(F)cc(c23)NC1c1ccc(F)cc1 (stereo not drawn) | 85.5% and 74% and 100% | 89.4% and 76.9% and 71.7% |  |  |  |  | > 100 nM | viability, T/C (compound 0.000316 µM): 125% and 98% and 95.9%; viability, T/C (compound 0.001 µM): 88.8% and 101% and 99%; viability, T/C (compound 0.00316 µM): 97.2% and 99.4% and 99.8%; viability, T/C (compound 0.01 µM): 96.9% and 109% and 95.9%
NS(=O)(=O)OCC1CC(n2ccc3c(NC4CCc5ccccc54)ncnc32)CC1O (stereo not drawn) | 52.1% and 44.4% and 32.1% | 41.7% and 37.3% and 22.6% | 27.1% and 18% and 11.2% | 12.3% and 12.1% and 6.23% | 11.9% and 7.68% and 3.37% | 11.4% and 4.21% and 2.28% | 39.2 nM and < 31.6 nM | 
Nc1ccccc1NC(=O)c1ccc(CNC(=O)OCc2cccnc2)cc1 | 86.1% and 87.6% and 78.7% | 92.3% and 84.5% and 75% | 59.9% and 74.8% and 27.3% | 24.3% and 40.5% and 16.6% | 5.76% and 6.13% and 5.26% | 0.69% and 0.9% and 0.3% | 457 nM and 718 nM and 183 nM | 
Nc1ccn(C2OC(CO)C(O)C2(F)F)c(=O)n1 (stereo not drawn) | 27.5% and 32.2% and 32.9% | 26.6% and 28.1% and 35.2% | 24.2% and 25.8% and 36.1% | 24.8% and 27.9% and 31.6% | 23.1% and 24.4% and 33.5% | 21.6% and 21.2% and 32.3% | < 31.6 nM | 
Nc1ncn(C2CC(O)C(CO)O2)c(=O)n1 (stereo not drawn) | 102% and 89.2% and 69.8% | 64.2% and 72.3% and 74.5% | 50.6% and 52.8% and 43.7% | 37% and 45.7% and 25.6% |  |  | 231 nM and 466 nM and 261 nM | viability, T/C (compound 0.00316 µM): 107% and 86.3% and 88.1%; viability, T/C (compound 0.01 µM): 95.4% and 112% and 100%
Nc1ncn(C2CC(O)C(CO)S2)c(=O)n1 (stereo not drawn) |  |  |  |  |  |  | > 300 nM and 294 nM | viability, T/C (compound 0.000949 µM): 109% and 96.2% and 95%; viability, T/C (compound 0.003 µM): 90.5% and 73.4% and 100%; viability, T/C (compound 0.00949 µM): 115% and 102% and 104%; viability, T/C (compound 0.03 µM): 105% and 80.6% and 104%; viability, T/C (compound 0.0949 µM): 89.2% and 68.3% and 79%; viability, T/C (compound 0.3 µM): 68.2% and 49.5% and 62%
O=C(C=Cc1cccc(S(=O)(=O)Nc2ccccc2)c1)NO | 91.7% and 96.1% and 95.8% | 87.7% and 85.4% and 80.2% | 61.3% and 59% and 42.5% | 17% and 24% and 28% | 7.15% and 7.86% and 8.15% | 1.07% and 0.78% and 0.36% | 425 nM and 423 nM and 295 nM | 
O=C(C=Cn1cnc(-c2cc(C(F)(F)F)cc(C(F)(F)F)c2)n1)NNc1cnccn1 |  |  |  |  |  |  | 122 nM and 51.9 nM and 59 nM | viability, T/C (compound 0.00949 µM): 92.3% and 73.3% and 75.8%; viability, T/C (compound 0.03 µM): 77.8% and 68.4% and 79.9%; viability, T/C (compound 0.0949 µM): 61.5% and 30% and 30.5%; viability, T/C (compound 0.3 µM): 12.5% and 17.1% and 6.76%; viability, T/C (compound 0.949 µM): 8.28% and 8.73% and 4.72%; viability, T/C (compound 3 µM): 6.13% and 7.12% and 2.87%
O=C(c1cc(Cc2n[nH]c(=O)c3ccccc23)ccc1F)N1CCN(C(=O)C2CC2)CC1 | 97.7% and 93.7% and 111% | 100% and 83.7% and 108% | 105% and 87.7% and 90.6% | 95.6% and 88% and 110% | 102% and 86.6% and 83.1% | 76.6% and 70.3% and 83.6% | > 10000 nM | 
